Results: US20100311714A1, “1H-IMIDAZO[4,5-c]QUINOLINONE COMPOUNDS” (priority 2009, published 2010)
pIC50: −log10 of the molar value. Where two headings read alike, the source gives them in different places.

What was measured:
[1] = Parallel Artificial Membrane Permeability Assay (PAMPA) at pH 6.8; type: physicochemical
Summary of the method: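 PAMPA permeability measured at pH 6.8 following the Wohnsland and Faller method; value reported as log Pe.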

mTOR = molecular target: T1, mTOR (Homo sapiens, UniProt P42345); assay: Biochemical assay for m-TOR by TR-FRET
T1 construct: purchased Invitrogen Corporation (Carlsbad/Calif., USA) PV4753
Summary of the method: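 mTOR (0.5 nM) phosphorylates GFP-4EBP1 (400 nM) with 8 μM ATP at rt in 50 mM HEPES pH 7.5, 10 mM MnCl2, 50 mM NaCl, 1 mM EGTA, 1 mM DTT; compounds 0.003–10 μM final. EDTA stop with Tb-anti-p4EBP1[pT46] antibody (0.5 nM); TR-FRET read after 15 min against no-enzyme and vehicle controls.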

PI3K beta = molecular target: T2, PI3K beta (Homo sapiens, UniProt P42338); assay: PI3K beta kinase assay (Kinase-Glo luminescence); type: biochemical
T2 construct: for the full-length p110-b subunit are generated and fused by overlapping PCR; His tag (C); made in house; host or cells: baculovirus BV949; Tn5 (Trichoplusia ni) or TiniPro insect cells
Summary of the method: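 PI3Kβ construct BV949 (p85 iSH2–p110β full-length, C-His), 25 nM, reacted with 1 μM ATP and 10 μg/mL phosphatidylinositol in Tris pH 7.5, MgCl2, NaCl, CHAPS, DTT buffer, 60 min at room temperature. Remaining ATP by Kinase-Glo luminescence; IC50 from 4-parameter logistic fit of 8 concentrations.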

T2 sequence (P42338 with tags, fused parts or gaps limits assumed): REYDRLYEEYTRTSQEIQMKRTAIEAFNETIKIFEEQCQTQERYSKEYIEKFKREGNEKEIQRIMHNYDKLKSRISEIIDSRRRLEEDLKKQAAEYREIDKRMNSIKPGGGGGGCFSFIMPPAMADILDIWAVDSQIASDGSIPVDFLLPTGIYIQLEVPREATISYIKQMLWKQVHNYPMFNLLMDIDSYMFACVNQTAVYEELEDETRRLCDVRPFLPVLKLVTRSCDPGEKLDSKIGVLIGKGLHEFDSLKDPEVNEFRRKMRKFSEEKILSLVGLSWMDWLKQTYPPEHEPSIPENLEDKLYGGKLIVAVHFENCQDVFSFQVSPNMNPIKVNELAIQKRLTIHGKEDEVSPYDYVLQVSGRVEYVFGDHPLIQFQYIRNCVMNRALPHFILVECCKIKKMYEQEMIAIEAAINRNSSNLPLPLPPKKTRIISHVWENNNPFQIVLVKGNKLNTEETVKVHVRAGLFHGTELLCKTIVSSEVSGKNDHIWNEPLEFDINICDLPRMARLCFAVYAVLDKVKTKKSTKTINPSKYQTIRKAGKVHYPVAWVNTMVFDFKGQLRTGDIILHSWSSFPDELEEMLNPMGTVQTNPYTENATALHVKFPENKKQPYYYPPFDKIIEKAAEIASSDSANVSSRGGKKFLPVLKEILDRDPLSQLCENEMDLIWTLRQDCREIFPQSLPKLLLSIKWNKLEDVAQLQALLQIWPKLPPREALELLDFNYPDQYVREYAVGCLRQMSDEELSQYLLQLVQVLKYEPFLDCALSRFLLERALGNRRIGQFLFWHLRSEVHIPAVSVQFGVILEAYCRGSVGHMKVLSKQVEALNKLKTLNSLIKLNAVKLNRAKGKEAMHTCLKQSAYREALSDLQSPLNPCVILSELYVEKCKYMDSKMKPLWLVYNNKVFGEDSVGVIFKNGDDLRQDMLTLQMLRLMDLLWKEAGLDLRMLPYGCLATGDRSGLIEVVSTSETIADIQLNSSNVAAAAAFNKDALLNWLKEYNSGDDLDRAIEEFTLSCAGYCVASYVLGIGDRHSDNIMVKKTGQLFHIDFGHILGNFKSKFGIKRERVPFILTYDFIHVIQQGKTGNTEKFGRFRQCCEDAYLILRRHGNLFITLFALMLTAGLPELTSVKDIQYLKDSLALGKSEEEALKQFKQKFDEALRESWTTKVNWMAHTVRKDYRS
T1 sequence (P42345 1360-2549 limits assumed): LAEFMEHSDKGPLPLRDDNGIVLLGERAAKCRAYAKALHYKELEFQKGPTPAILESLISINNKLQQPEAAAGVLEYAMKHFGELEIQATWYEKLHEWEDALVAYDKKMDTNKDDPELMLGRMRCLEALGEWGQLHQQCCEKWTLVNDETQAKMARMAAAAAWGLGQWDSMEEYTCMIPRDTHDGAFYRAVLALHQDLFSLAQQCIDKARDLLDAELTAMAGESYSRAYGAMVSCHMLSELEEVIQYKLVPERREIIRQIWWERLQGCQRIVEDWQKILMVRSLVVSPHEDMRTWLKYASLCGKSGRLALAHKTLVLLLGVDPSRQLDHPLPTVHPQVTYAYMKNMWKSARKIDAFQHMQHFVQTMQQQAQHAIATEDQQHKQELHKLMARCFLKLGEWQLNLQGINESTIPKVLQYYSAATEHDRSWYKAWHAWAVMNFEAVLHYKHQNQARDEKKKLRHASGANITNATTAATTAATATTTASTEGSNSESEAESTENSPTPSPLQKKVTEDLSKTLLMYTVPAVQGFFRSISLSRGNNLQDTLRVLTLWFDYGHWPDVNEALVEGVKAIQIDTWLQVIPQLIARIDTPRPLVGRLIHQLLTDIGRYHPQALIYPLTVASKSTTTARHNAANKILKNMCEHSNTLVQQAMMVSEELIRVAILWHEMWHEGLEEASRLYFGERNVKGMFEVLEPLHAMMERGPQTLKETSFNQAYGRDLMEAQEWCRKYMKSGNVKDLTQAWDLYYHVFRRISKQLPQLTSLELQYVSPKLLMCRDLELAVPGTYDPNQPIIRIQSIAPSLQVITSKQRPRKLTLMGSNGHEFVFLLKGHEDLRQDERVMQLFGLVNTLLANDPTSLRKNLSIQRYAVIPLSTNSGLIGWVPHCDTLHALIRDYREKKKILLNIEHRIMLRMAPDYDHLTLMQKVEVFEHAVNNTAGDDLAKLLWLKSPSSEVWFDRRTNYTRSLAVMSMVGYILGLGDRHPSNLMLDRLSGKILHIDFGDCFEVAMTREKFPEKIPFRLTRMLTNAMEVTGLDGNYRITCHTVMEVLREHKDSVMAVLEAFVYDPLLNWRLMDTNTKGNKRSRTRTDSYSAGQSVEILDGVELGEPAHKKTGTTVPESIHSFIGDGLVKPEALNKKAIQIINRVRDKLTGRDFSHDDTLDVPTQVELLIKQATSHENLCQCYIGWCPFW

HT-Perm logPe pH6.8 [1] | pIC50 (mTOR; read-out: EPK_mTOR/IC50) | pIC50 (PI3K beta; read-out: EPK_PI3Kbeta/IC50) | HT-perm/logPe pH6.8 [1] | pIC50 (mTOR; read-out: mTOR/IC50) | pIC50 (PI3K beta; read-out: PI3Kbeta/IC50) | SMILES
−3.8 | 7.59 | 6.45 |  |  |  | CCOc1ccc(-c2ccc3ncc4c(c3c2)n(-c2ccc(C)nc2C)c(=O)n4C)cn1 [Example 14.2, 1-(2,6-Dimethyl-pyridin-3-yl)-8-(6-ethoxy-pyridin-3-yl)-3-methyl-1,3-dihydro-imidazo[4,5-c]quinolin-2-one]
 | 7.68 | 6.13 |  |  |  | COCCOc1ccc(-n2c(=O)n(C)c3cnc4ccc(-c5cncc(N6CCC6)c5)cc4c32)c(C)n1 [Example 22.2, 8-(5-Azetidin-1-yl-pyridin-3-yl)-1-[6-(2-methoxy-ethoxy)-2-methyl-pyridin-3-yl]-3-methyl-1,3-dihydro-imidazo[4,5-c]quinolin-2-one]
−4.3 | 7.41 | 6.18 |  |  |  | CNc1ncc(-c2ccc3ncc4c(c3c2)n(-c2ccc(OCCOC)nc2C)c(=O)n4C)cn1 [Example 13.5, 1-[6-(2-Methoxy-ethoxy)-2-methyl-pyridin-3-yl]-3-methyl-8-(2-methylamino-pyrimidin-5-yl)-1,3-dihydro-imidazo[4,5-c]quinolin-2-one]
−3.9 | 7.47 | 5.82 |  |  |  | CNc1ccc(-c2ccc3ncc4c(c3c2)n(-c2ccc(N3CCCC3)nc2C)c(=O)n4C)cn1 [Example 25.1, 3-Methyl-8-(6-methylamino-pyridin-3-yl)-1-(2-methyl-6-pyrrolidin-1-yl-pyridin-3-yl)-1,3-dihydro-imidazo[4,5-c]quinolin-2-one]
−5.9 | 6.60 | 7.85 |  |  |  | CNC(=O)c1cc(-c2ccc3ncc4c(c3c2)n(-c2ccc(F)nc2C)c(=O)n4C)cnc1N [Example 7.14, 2-Amino-5-[1-(6-fluoro-2-methyl-pyridin-3-yl)-3-methyl-2-oxo-2,3-dihydro-1H-imidazo[4,5-c]quinolin-8-yl]-N-methyl-nicotinamide]
 | 7.96 | 6.23 |  |  |  | CNc1ccc(-c2ccc3ncc4c(c3c2)n(-c2ccc(NC(=O)COC)nc2C)c(=O)n4C)cn1 [Example 20.4, 2-Methoxy-N-{6-methyl-5-[3-methyl-8-(6-methylamino-pyridin-3-yl)-2-oxo-2,3-dihydro-imidazo[4,5-c]quinolin-1-yl]-pyridin-2-yl}-acetamide]
 | 7.23 | 5.56 |  |  |  | CNc1ncc(-c2ccc3ncc4c(c3c2)n(-c2ccc(NC(=O)COC)nc2C)c(=O)n4C)cn1 [Example 20.3, 2-Methoxy-N-{6-methyl-5-[3-methyl-8-(2-methylamino-pyrimidin-5-yl)-2-oxo-2,3-dihydro-imidazo[4,5-c]quinolin-1-yl]-pyridin-2-yl}-acetamide]
 | 6.81 | 6.05 |  |  |  | CCOc1ccc(-c2ccc3ncc4c(c3c2)n(-c2ccc(NC(=O)COC)nc2C)c(=O)n4C)cn1 [Example 20.2, N-{5-[8-(6-Ethoxy-pyridin-3-yl)-3-methyl-2-oxo-2,3-dihydro-imidazo[4,5-c]quinolin-1-yl]-6-methyl-pyridin-2-yl}-2-methoxy-acetamide]
 | > 8.52 | 7.57 |  |  |  | CCNc1cc(-c2ccc3ncc4c(c3c2)n(-c2ccc(N3CC(F)(F)C3)nc2C)c(=O)n4C)cnc1CO [Example 24.3, 1-[6-(3,3-Difluoro-azetidin-1-yl)-2-methyl-pyridin-3-yl]-8-(5-ethylamino-6-hydroxymethyl-pyridin-3-yl)-3-methyl-1,3-dihydro-imidazo[4,5-c]quinolin-2-one]
−4.4 |  | 5.70 |  |  |  | CCOc1ccc(-c2ccc3ncc4c(c3c2)n(-c2ccc(N(C)C)nc2C)c(=O)n4C)cn1 [Example 19.3, 1-(6-Dimethylamino-2-methyl-pyridin-3-yl)-8-(6-ethoxy-pyridin-3-yl)-3-methyl-1,3-dihydro-imidazo[4,5-c]quinolin-2-one]

Further lines, the compound ahead of its results:

SMILES | HT-Perm logPe pH6.8 [1] | pIC50 (mTOR; read-out: EPK_mTOR/IC50) | pIC50 (PI3K beta; read-out: EPK_PI3Kbeta/IC50) | HT-perm/logPe pH6.8 [1] | pIC50 (mTOR; read-out: mTOR/IC50) | pIC50 (PI3K beta; read-out: PI3Kbeta/IC50)
COCCOc1cc(-c2ccc3ncc4c(c3c2)n(-c2ccc(OC)nc2OC)c(=O)n4C)cnc1C [Example 8.9, 1-(2,6-Dimethoxy-pyridin-3-yl)-8-[5-(2-methoxy-ethoxy)-6-methyl-pyridin-3-yl]-3-methyl-1,3-dihydro-imidazo[4,5-c]quinolin-2-one] | −3.9 | 8.00 | 7.37 |  |  | 
COc1ccc(-n2c(=O)n(C)c3cnc4ccc(-c5cnc(CO)c(OC)c5)cc4c32)c(C)n1 [Example 11.8, 8-(6-Hydroxymethyl-5-methoxy-pyridin-3-yl)-1-(6-methoxy-2-methyl-pyridin-3-yl)-3-methyl-1,3-dihydro-imidazo[4,5-c]quinolin-2-one] | −3.9 | 7.34 | 5.59 |  |  | 
Cc1cc(F)ncc1-n1c(=O)n(C)c2cnc3ccc(-c4cnc5c(ccn5C)c4)cc3c21 [Example 16.5, 1-(6-Fluoro-4-methyl-pyridin-3-yl)-3-methyl-8-(1-methyl-1H-pyrrolo[2,3-b]pyridin-5-yl)-1,3-dihydro-imidazo[4,5-c]quinolin-2-one] | −3.7 | 6.21 | 6.58 |  |  | 
COCCN(C)c1ccc(-n2c(=O)n(C)c3cnc4ccc(-c5cnc(CO)c(OC)c5)cc4c32)c(C)n1 [Example 15.9, 8-(6-Hydroxymethyl-5-methoxy-pyridin-3-yl)-1-{6-[(2-methoxy-ethyl)-methyl-amino]-2-methyl-pyridin-3-yl}-3-methyl-1,3-dihydro-imidazo[4,5-c]quinolin-2-one] |  | 6.92 | 7.82 |  |  | 
COc1ccc(-c2ccc3ncc4c(c3c2)n(-c2cccnc2)c(=O)n4C)cc1OC [Example 5.2, 8-(3,4-Dimethoxy-phenyl)-3-methyl-1-pyridin-3-yl-1,3-dihydro-imidazo[4,5-c]quinolin-2-one] |  |  |  | −3.9 | 6.63 | 6.53
CCNc1cc(-c2ccc3ncc4c(c3c2)n(-c2ccc(OC)nc2C)c(=O)n4C)cnc1C [Example 11.7, 8-(5-Ethylamino-6-methyl-pyridin-3-yl)-1-(6-methoxy-2-methyl-pyridin-3-yl)-3-methyl-1,3-dihydro-imidazo[4,5-c]quinolin-2-one] | −3.7 | 8.52 | 8.22 |  |  | 
COc1ncccc1-n1c(=O)n(C)c2cnc3ccc(-c4cnc5c(ccn5C)c4)cc3c21 [Example 1.7, 1-(2-Methoxy-pyridin-3-yl)-3-methyl-8-(1-methyl-1H-pyrrolo[2,3-b]pyridin-5-yl)-1,3-dihydro-imidazo[4,5-c]quinolin-2-one] |  |  |  | −3.8 | 7.80 | 
COCC(=O)Nc1ccc(-n2c(=O)n(C)c3cnc4ccc(-c5cncc(OC(C)C)c5)cc4c32)c(C)n1 [Example 20.5, N-{5-[8-(5-Isopropoxy-pyridin-3-yl)-3-methyl-2-oxo-2,3-dihydro-imidazo[4,5-c]quinolin-1-yl]-6-methyl-pyridin-2-yl}-2-methoxy-acetamide] |  | 6.05 | 6.27 |  |  | 
Cc1nc(F)ccc1-n1c(=O)n(C)c2cnc3ccc(-c4cnc(N)c(CO)c4)cc3c21 [Example 7.17, 8-(6-Amino-5-hydroxymethyl-pyridin-3-yl)-1-(6-fluoro-2-methyl-pyridin-3-yl)-3-methyl-1,3-dihydro-imidazo[4,5-c]quinolin-2-one] |  | 7.10 | 6.73 |  |  | 
Cc1cccnc1-n1c(=O)n(C)c2cnc3ccc(-c4cnc5ccccc5c4)cc3c21 [Example 3.8, 3-Methyl-1-(3-methyl-pyridin-2-yl)-8-quinolin-3-yl-1,3-dihydro-imidazo[4,5-c]quinolin-2-one] |  |  |  | −3.9 | 6.26 | 
COc1ccc(-c2ccc3ncc4c(c3c2)n(-c2ncccc2C)c(=O)n4C)cn1 [Example 3.13, 8-(6-Methoxy-pyridin-3-yl)-3-methyl-1-(3-methyl-pyridin-2-yl)-1,3-dihydro-imidazo[4,5-c]quinolin-2-one] |  |  |  | −3.7 |  | 
COc1ncccc1-n1c(=O)n(C)c2cnc3ccc(-c4cnc(N(C)C)nc4)cc3c21 [Example 1.9, 8-(2-Dimethylamino-pyrimidin-5-yl)-1-(2-methoxy-pyridin-3-yl)-3-methyl-1,3-dihydro-imidazo[4,5-c]quinolin-2-one] |  |  |  | −3.3 | 7.85 | 
COCCOc1ccc(-n2c(=O)n(C)c3cnc4ccc(-c5cnc(COC)c(OC)c5)cc4c32)c(C)n1 [Example 22.3, 1-[6-(2-Methoxy-ethoxy)-2-methyl-pyridin-3-yl]-8-(5-methoxy-6-methoxymethyl-pyridin-3-yl)-3-methyl-1,3-dihydro-imidazo[4,5-c]quinolin-2-one] |  | 6.85 | 6.91 |  |  | 
COc1ncccc1-n1c(=O)n(C)c2cnc3ccc(-c4ccc(F)nc4)cc3c21 [Example 1.8, 8-(6-Fluoro-pyridin-3-yl)-1-(2-methoxy-pyridin-3-yl)-3-methyl-1,3-dihydro-imidazo[4,5-c]quinolin-2-one] |  |  |  | −3.7 | 7.06 | 
COc1ccc(-n2c(=O)n(C)c3cnc4ccc(-c5cnc(N)c(C(F)(F)F)c5)cc4c32)c(OC)n1 [Example 8.1, 8-(6-Amino-5-trifluoromethyl-pyridin-3-yl)-1-(2,6-dimethoxy-pyridin-3-yl)-3-methyl-1,3-dihydro-imidazo[4,5-c]quinolin-2-one] |  |  |  | −4.1 |  | 7.64
